Laboratory results published in patent publication US20230063238A1, “IMMUNOMODULATORS” (Bristol-Myers Squibb Company, priority 2020, published 2023).
Starred links: 1 amine or outer side, 2 acyl side, 3 side chain; linkers in the order of their positions; H or OH if unused. Positions of bridges follow the written chain, without caps; N, C: chain ends. Non-standard residues stand in square brackets, D forms with d. Residues, ends and D or L forms follow the SMILES beside them. *: point of attachment. Trp(1-CH2CO2Me) = COC(=O)Cn1cc(C[C@H](N)C(=O)O)c2ccccc21; Trp(1-CH2COOH) = N[C@@H](Cc1cn(CC(=O)O)c2ccccc12)C(=O)O; Hyp = O=C(O)[C@@H]1C[C@@H](O)CN1; Methoxyoxalyl = COC(=O)C(=O)*; Oxalyl = O=C(C(=O)[*:2])[*:1]; X3 = O=C(NCc1ccc(F)cc1)C(=O)*; X9 = O=C(Nc1ccc(F)cc1F)C(=O)*; NMeNle = CCCC[C@H](NC)C(=O)O; X1 = O=C(Oc1ccccc1)C(=O)*; NMeA = CN[C@@H](C)C(=O)O; Dab = NCC[C@H](N)C(=O)O; Dap = NC[C@H](N)C(=O)O

Target: T1, PD-1/PD-L1 (Homo sapiens, UniProt Q9NZQ7)
T1 construct: TVMV protease site linker (C); made in house; host or cells: HEK293T cells
Experiment: PD-1/PD-L1 Homogenous Time-Resolved Fluorescence (HTRF) binding assay
Conditions: PD-L1-His 10 nM final, PD-1-Ig 20 nM final; inhibitors pre-incubated with PD-L1-His for 15 m
Excerpt: The ability of the compounds of formula (I) to bind to PD-L1 was investigated using a PD-1/PD-L1 Homogenous Time-Resolved Fluorescence (HTRF) binding assay.
Homogenous Time-Resolved Fluorescence (HTRF) Binding Assay
The interaction of PD-1 and PD-L1 can be assessed using soluble, purified preparations of the extracellular domains of the two proteins. The PD-1 and PD-L1 protein extracellular domains were expressed as fusion proteins with detection tags, for PD-1, the tag was the Fc portion of Immunoglobulin (PD-1-Ig) and for PD-L1 it was the 6 histidine motif (PD-L1-His). All binding studies were performed in an HTRF assay buffer consisting of dPBS supplemented with 0.1% […] bovine serum albumin and 0.05% (v/v) Tween-20. For the h/PD-L1-His binding assay, inhibitors were pre-incubated with PD-L1-His (10 nM final) for 15 m in 4 μl of assay buffer, followed by addition of PD-1-Ig (20 nM final) in 1 μl of assay buffer and further incubation for 15m. HTRF detection was achieved using europium crypate-labeled anti-Ig (1 nM final) and allophycocyanin (APC) labeled anti-His (20 nM final). Antibodies were diluted in HTRF detection buffer and 5 μl was dispensed on top of the binding reaction. The reaction mixture was allowed to equilibrate for 30 minutes and the resulting signal (665 nm/620 nm ratio) was obtained using an EnVision fluorometer. Additional binding assays were established between the human proteins PD-1-Ig/PD-L2-His (20 & 5 nM, respectively) and CD80-His/PD-L1-Ig (100 & 10 nM, respectively).
Recombinant Proteins: Human PD-1 (25-167) with a C-terminal human Fc domain of immunoglobulin G (Ig) epitope tag [hPD-1 (25-167)-3S-IG] and human PD-L1 (18-239) with a C-terminal His epitope tag [hPD-L1(18-239)-TVMV-His] were expressed in HEK293T cells and purified sequentially by ProteinA affinity chromatography and size exclusion chromatography. Human PD-L2-His and CD80-His was obtained through commercial sources.
Table 1 lists the IC50 values for representative examples of this disclosure measured in the PD-1/PD-L1 Homogenous Time-Resolved Fluorescence (HTRF) binding assay.

T1 sequence (Q9NZQ7 18-239): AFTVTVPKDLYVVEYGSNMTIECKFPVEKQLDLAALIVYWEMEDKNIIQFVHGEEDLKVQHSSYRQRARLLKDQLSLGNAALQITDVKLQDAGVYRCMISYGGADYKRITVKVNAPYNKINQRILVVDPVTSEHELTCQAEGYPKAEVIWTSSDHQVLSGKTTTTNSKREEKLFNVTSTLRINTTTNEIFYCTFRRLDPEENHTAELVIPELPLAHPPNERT

IC50 [nM] | SMILES
1.2 | CCCC[C@H]1C(=O)N(C)[C@@H](CCCC)C(=O)N[C@@H](CC(C)C)C(=O)N[C@H](C(=O)NCC(N)=O)CSCC(=O)N[C@@H](Cc2ccc(O)cc2)C(=O)N(C)[C@@H](C)C(=O)N[C@@H](CC(N)=O)C(=O)N2CCC[C@H]2C(=O)N[C@@H](CNC(=O)C(=O)NCc2ccc(F)cc2)C(=O)N[C@@H](CC(C)C)C(=O)N2C[C@H](O)C[C@H]2C(=O)N[C@@H](Cc2c[nH]c3ccccc23)C(=O)N[C@@H](CCNC(=O)C(=O)NCc2ccc(F)cc2)C(=O)N[C@@H](Cc2cn(CC(=O)OC)c3ccccc23)C(=O)N1C [Compound 2009] ({CH2CO}-Y[NMeA]NP[Dap](X3)L[Hyp]W[Dab](X3)[Trp(1-CH2CO2Me)][NMeNle][NMeNle]LCG-NH2; thioether N-14)
1.8 | CCCC[C@H]1C(=O)N(C)[C@@H](CCCC)C(=O)N[C@@H](CC(C)C)C(=O)N[C@H](C(=O)NCC(N)=O)CSCC(=O)N[C@@H](Cc2ccc(O)cc2)C(=O)N(C)[C@@H](C)C(=O)N[C@@H](CC(N)=O)C(=O)N2CCC[C@H]2C(=O)N[C@@H](CNC(=O)C(=O)Nc2ccc(F)cc2F)C(=O)N[C@@H](CC(C)C)C(=O)N2C[C@H](O)C[C@H]2C(=O)N[C@@H](Cc2c[nH]c3ccccc23)C(=O)N[C@@H](CCNC(=O)C(=O)Nc2ccc(F)cc2F)C(=O)N[C@@H](Cc2cn(CC(=O)OC)c3ccccc23)C(=O)N1C [Compound 2010] ({CH2CO}-Y[NMeA]NP[Dap](X9)L[Hyp]W[Dab](X9)[Trp(1-CH2CO2Me)][NMeNle][NMeNle]LCG-NH2; thioether N-14)
6.3 | CCCC[C@H]1C(=O)N(C)[C@@H](CCCC)C(=O)N[C@@H](CC(C)C)C(=O)N[C@H](C(=O)NCC(N)=O)CSCC(=O)N[C@@H](Cc2ccc(O)cc2)C(=O)N(C)[C@@H](C)C(=O)N[C@@H](CC(N)=O)C(=O)N2CCC[C@H]2C(=O)N[C@@H](CNC(=O)C(=O)OC)C(=O)N[C@@H](CC(C)C)C(=O)N2C[C@H](O)C[C@H]2C(=O)N[C@@H](Cc2c[nH]c3ccccc23)C(=O)N[C@@H](CCNC(=O)C(=O)OC)C(=O)N[C@@H](Cc2cn(CC(=O)OC)c3ccccc23)C(=O)N1C [Compound 3001] ({CH2CO}-Y[NMeA]NP[Dap](Methoxyoxalyl)L[Hyp]W[Dab](Methoxyoxalyl)[Trp(1-CH2CO2Me)][NMeNle][NMeNle]LCG-NH2; thioether N-14)
0.64 | CCCC[C@H]1C(=O)N(C)[C@@H](CCCC)C(=O)N[C@@H](CC(C)C)C(=O)N[C@H](C(=O)NCC(N)=O)CSCC(=O)N[C@@H](Cc2ccc(O)cc2)C(=O)N(C)[C@@H](C)C(=O)N[C@@H](CC(N)=O)C(=O)N2CCC[C@H]2C(=O)N[C@@H](CNC(=O)C(=O)Oc2ccccc2)C(=O)N[C@@H](CC(C)C)C(=O)N2C[C@H](O)C[C@H]2C(=O)N[C@@H](Cc2c[nH]c3ccccc23)C(=O)N[C@@H](CCNC(=O)C(=O)Oc2ccccc2)C(=O)N[C@@H](Cc2cn(CC(=O)OC)c3ccccc23)C(=O)N1C [Compound 3003] ({CH2CO}-Y[NMeA]NP[Dap](X1)L[Hyp]W[Dab](X1)[Trp(1-CH2CO2Me)][NMeNle][NMeNle]LCG-NH2; thioether N-14)
3.6 | CCCC[C@H]1C(=O)N(C)[C@@H](CCCC)C(=O)N[C@@H](CC(C)C)C(=O)N[C@H](C(=O)NCC(N)=O)CSCC(=O)N[C@@H](Cc2ccc(O)cc2)C(=O)N(C)[C@@H](C)C(=O)N[C@@H](CC(N)=O)C(=O)N2CCC[C@H]2C(=O)N[C@@H](CNC(=O)C(=O)O)C(=O)N[C@@H](CC(C)C)C(=O)N2C[C@H](O)C[C@H]2C(=O)N[C@@H](Cc2c[nH]c3ccccc23)C(=O)N[C@@H](CCNC(=O)C(=O)O)C(=O)N[C@@H](Cc2cn(CC(=O)O)c3ccccc23)C(=O)N1C [Compound 4001] ({CH2CO}-Y[NMeA]NP[Dap](Oxalyl)L[Hyp]W[Dab](Oxalyl)[Trp(1-CH2COOH)][NMeNle][NMeNle]LCG-NH2; thioether N-14)
2.6 | CCCC[C@H]1C(=O)N(C)[C@@H](CCCC)C(=O)N[C@@H](CC(C)C)C(=O)N[C@H](C(=O)NCC(N)=O)CSCC(=O)N[C@@H](Cc2ccc(O)cc2)C(=O)N(C)[C@@H](C)C(=O)N[C@@H](CC(N)=O)C(=O)N2CCC[C@H]2C(=O)N[C@@H](CNC(=O)C(=O)O)C(=O)N[C@@H](CC(C)C)C(=O)N2C[C@H](O)C[C@H]2C(=O)N[C@@H](Cc2c[nH]c3ccccc23)C(=O)N[C@@H](CCNC(=O)C(=O)O)C(=O)N[C@@H](Cc2cn(CC(=O)OC)c3ccccc23)C(=O)N1C [Compound 5001] ({CH2CO}-Y[NMeA]NP[Dap](Oxalyl)L[Hyp]W[Dab](Oxalyl)[Trp(1-CH2CO2Me)][NMeNle][NMeNle]LCG-NH2; thioether N-14)
